# Laboratory results reported in patent US6673749B1, “Use of phyllocladane diterpenoids for plant growth promotion and alleviation of growth retardant allelochemicals, and method therefor” (Council of Scientific and Industrial Research, priority 2002, dated 2004).
# Tests used:
# Assay in all cases: Seed germination and seedling shoot/root growth test in petridishes
# Type in all cases: in vivo
# Vigna radiata = settings: Vigna radiata, control = 100%
# Protocol: (§1) As noted above the activity of phyllocladane diterpenoids used in the practice of this invention was observed when these compounds were tested for their effects on seed germination, root and shoot growth of certain plant species and their antagonistic effect on plant growth retardants by the method described by Bagchi G. D. et al Phytochemistry, 45(6)1131-1133, 1997.
# (§2) Plant growth promoting activity of calliterpenone, calliterpenone monoacetate, and calliterpenone di-acetate was examined at 0.1, 0.01 and 0.001 μM concentrations. The tests were conducted against seeds of two monocotyledonous (Hordeum vulgare and Triticum aestivum) and two dicotyledonous plants (Vigna radiata and Trigonella foenum-graecum). Control seeds were germinated in distilled water and all the observations were compared with […]. The root and shoot growth of all the plant species were affected by the phyllocladane diterpenoids, although the extent of effect varied considerably in the plant species with the chemicals and their concentrations. […] Details of the procedure adopted and results obtained are discussed in the various examples.
# (§3) 100 ml stalk solutions of 0.1 μM concentration were prepared by dissolving required amounts of various test compounds (depending upon their molecular weights) in minimum amount of ethanol or acetone and adding distilled water. From this stalk solution, 0.01 μM and 0.001 μM concentrations were prepared. Calliterpenone and calliterpenone di acetate was dissolved in 2.0 ml absolute ethanol (Merc), while; calliterpenone monoacetate, isopropylideno calliterpenone and trihydroxy calliterpenone were dissolved in 2.0 ml spectral grade acetone (Ranbaxy). The respective control test solutions of distilled water of each concentration also contained equal amount of absolute ethanol or acetone. For an assay, 10 seeds were placed on Whatman filter paper (moistened with 5.0 ml of test solution in a 9.0 cm diameter petridish (in triplicate). The pteridishes were incubated for 9 days in a germinator, maintained at 25.0±1.0° C. with 90% humidity and 4 hr light/day. At the end of incubation, observations were recorded on the seedlings in terms of germination, shoot and root growth. The data on the length of shoot and root of seedlings and number of seeds germinated in different concentrations of compounds were compared with the control, which was taken as 100%. The data thus obtained were presented in Table-1.
# (§4) Root growth of seedlings was measured in the similar way as shoot growth from the experiment as described in Example 1.
# (§5) Effect of test compounds on germination was observed from the same experiment as described in Example 1.
# [1] = test system: Trigonella foenum-graecum; settings: for Percent (%) germination of seeds in relation to control on 9th day after sowing / Percent (%) root growth of seedlings in relation to control on 9th day after sowing / Percent (%) shoot growth of seedlings in relation to control on 9th day after sowing: Trigonella foenum graecum, control = 100%
# Protocol: as §1, §2, §3, §4, §5
# Triticum aestivum = settings: control = 100%
# Protocol: as §1, §2, §3, §4, §5
# Hordeum vulgare = settings: control = 100%
# Protocol: as §1, §2, §3, §4, §5
Structure (SMILES),Percent (%) germination of seeds in relation to control on 9th day after sowing (Vigna radiata; 0.001 μM),Percent (%) root growth of seedlings in relation to control on 9th day after sowing (Vigna radiata; 0.001 μM),Percent (%) shoot growth of seedlings in relation to control on 9th day after sowing (Vigna radiata; 0.001 μM),Percent (%) germination of seeds in relation to control on 9th day after sowing (Vigna radiata; 0.01 μM),Percent (%) root growth of seedlings in relation to control on 9th day after sowing (Vigna radiata; 0.01 μM),Percent (%) shoot growth of seedlings in relation to control on 9th day after sowing (Vigna radiata; 0.01 μM),Percent (%) germination of seeds in relation to control on 9th day after sowing (Vigna radiata; 0.1 μM),Percent (%) root growth of seedlings in relation to control on 9th day after sowing (Vigna radiata; 0.1 μM),Percent (%) shoot growth of seedlings in relation to control on 9th day after sowing (Vigna radiata; 0.1 μM),Percent (%) germination of seeds in relation to control on 9th day after sowing ([1]; 0.001 μM),Percent (%) root growth of seedlings in relation to control on 9th day after sowing ([1]; 0.001 μM),Percent (%) shoot growth of seedlings in relation to control on 9th day after sowing ([1]; 0.001 μM),Percent (%) germination of seeds in relation to control on 9th day after sowing ([1]; 0.01 μM),Percent (%) root growth of seedlings in relation to control on 9th day after sowing ([1]; 0.01 μM),Percent (%) shoot growth of seedlings in relation to control on 9th day after sowing ([1]; 0.01 μM),Percent (%) germination of seeds in relation to control on 9th day after sowing ([1]; 0.1 μM),Percent (%) root growth of seedlings in relation to control on 9th day after sowing ([1]; 0.1 μM),Percent (%) shoot growth of seedlings in relation to control on 9th day after sowing ([1]; 0.1 μM),Percent (%) germination of seeds in relation to control on 9th day after sowing (Triticum aestivum; 0.001 μM),Percent (%) root growth of seedlings in relation to control on 9th day after sowing (Triticum aestivum; 0.001 μM),also measured
"CC1(C)OCC2(CC34CCC5C(C)(C)C(=O)CCC5(C)C3CCC2C4)O1 (stereo not drawn) [Isopropylideno Calliterpenone, 16α, 17-isopropylidino 3-oxo phyllocladane]",150%,91%,89%,100%,131%,153%,100%,124%,145%,100%,132%,137%,113%,123%,123%,100%,91%,100%,100%,109%,"Percent (%) root growth of seedlings in relation to control on 9th day after sowing ([1]; 0.01 μM, listed as Iso-propylideno calliterpenone): 132%; Percent (%) shoot growth of seedlings in relation to control on 9th day after sowing (Triticum aestivum; 0.001 μM): 103%; Percent (%) germination of seeds in relation to control on 9th day after sowing (Triticum aestivum; 0.01 μM): 100%; Percent (%) root growth of seedlings in relation to control on 9th day after sowing (Triticum aestivum; 0.01 μM): 107%; Percent (%) shoot growth of seedlings in relation to control on 9th day after sowing (Triticum aestivum; 0.01 μM): 103%; Percent (%) germination of seeds in relation to control on 9th day after sowing (Triticum aestivum; 0.1 μM): 100%; Percent (%) root growth of seedlings in relation to control on 9th day after sowing (Triticum aestivum; 0.1 μM): 78%; Percent (%) shoot growth of seedlings in relation to control on 9th day after sowing (Triticum aestivum; 0.1 μM): 102%; Percent (%) germination of seeds in relation to control on 9th day after sowing (Hordeum vulgare; 0.001 μM): 100%; Percent (%) root growth of seedlings in relation to control on 9th day after sowing (Hordeum vulgare; 0.001 μM): 118%; Percent (%) shoot growth of seedlings in relation to control on 9th day after sowing (Hordeum vulgare; 0.001 μM): 106%; Percent (%) germination of seeds in relation to control on 9th day after sowing (Hordeum vulgare; 0.01 μM): 100%; Percent (%) root growth of seedlings in relation to control on 9th day after sowing (Hordeum vulgare; 0.01 μM): 115%; Percent (%) shoot growth of seedlings in relation to control on 9th day after sowing (Hordeum vulgare; 0.01 μM): 107%; Percent (%) germination of seeds in relation to control on 9th day after sowing (Hordeum vulgare; 0.1 μM): 100%; Percent (%) root growth of seedlings in relation to control on 9th day after sowing (Hordeum vulgare; 0.1 μM): 143%; Percent (%) shoot growth of seedlings in relation to control on 9th day after sowing (Hordeum vulgare; 0.1 μM): 108%"
"CC1(C)C(O)CCC2(C)C3CCC4CC3(CCC12)CC4(O)CO (stereo not drawn) [Trihydroxy Phyllocladane, 30β, 16α, 17. trihydroxy phyllocladane]",100%,100%,136%,150%,102%,145%,150%,93%,132%,63%,55%,53%,75%,68%,72%,88%,82%,84%,100%,90%,"Effect on shoots (in words) ([1]; T. foenum-graecum, all dilutions tested): proved toxic; Percent (%) shoot growth of seedlings in relation to control on 9th day after sowing (Triticum aestivum; 0.001 μM): 108%; Percent (%) germination of seeds in relation to control on 9th day after sowing (Triticum aestivum; 0.01 μM): 100%; Percent (%) root growth of seedlings in relation to control on 9th day after sowing (Triticum aestivum; 0.01 μM): 113%; Percent (%) shoot growth of seedlings in relation to control on 9th day after sowing (Triticum aestivum; 0.01 μM): 112%; Percent (%) germination of seeds in relation to control on 9th day after sowing (Triticum aestivum; 0.1 μM): 100%; Percent (%) root growth of seedlings in relation to control on 9th day after sowing (Triticum aestivum; 0.1 μM): 111%; Percent (%) shoot growth of seedlings in relation to control on 9th day after sowing (Triticum aestivum; 0.1 μM): 116%; Percent (%) germination of seeds in relation to control on 9th day after sowing (Hordeum vulgare; 0.001 μM): 100%; Percent (%) root growth of seedlings in relation to control on 9th day after sowing (Hordeum vulgare; 0.001 μM): 145%; Percent (%) shoot growth of seedlings in relation to control on 9th day after sowing (Hordeum vulgare; 0.001 μM): 102%; Percent (%) germination of seeds in relation to control on 9th day after sowing (Hordeum vulgare; 0.01 μM): 100%; Percent (%) root growth of seedlings in relation to control on 9th day after sowing (Hordeum vulgare; 0.01 μM): 112%; Percent (%) shoot growth of seedlings in relation to control on 9th day after sowing (Hordeum vulgare; 0.01 μM): 108%; Percent (%) germination of seeds in relation to control on 9th day after sowing (Hordeum vulgare; 0.1 μM): 100%; Percent (%) root growth of seedlings in relation to control on 9th day after sowing (Hordeum vulgare; 0.1 μM): 106%; Percent (%) shoot growth of seedlings in relation to control on 9th day after sowing (Hordeum vulgare; 0.1 μM): 109%"
